# Assay results: patent US20240262805A1, “METHOD FOR PRODUCING COMPOUND OR PHARMACEUTICALLY ACCEPTABLE SALT THEREOF” (EA PHARMA CO., LTD., priority 2021, published 2024)
# Counter-ions that a name gives are not always drawn.
# Assays:
# Assay type in all cases: physicochemical
# [1] = Deliquescence on standing at 60% RH and 25° C.; details: left in an environment of 60% RH and 25° C.; initially white powder
# Method: In reference to the description on page 56 in Patent Literature 1 (International Publication No. WO2017/135472), the compound 10-BoC was deprotected. Specifically, the compound 10-BoC was dissolved in ethyl acetate and the reaction liquid was cooled to 5° C. After that, a hydrochloric acid/ethyl acetate solution was added dropwise thereto, followed by stirring at 20° C. for 16 hours. After that, the solid was filtered out and dried under reduced pressure to obtain a compound 16-HCl (a hydrochloric acid salt of the compound 16). The obtained compound was initially white powder, but when left in an environment of 60% RH and 25° C., was completely deliquesced within 24 hours.
# [2] = Measurement of solubility at pH 6.9 (saturated solution, HPLC); details: second dissolution test solution (pH 6.9), shaken at 20° C. for 24 hours, filtrate determined by HPLC
# Method: Specifically, the crystal B can achieve a solubility at pH 6.9 of 50 μg/ml or more. Here, the solubility at pH 6.9 is measured by HPLC analysis. Specifically, the solubility at pH 6.9 can be measured in the method described below in Examples.
# Regarding the crystals B and C, the solubility at pH 6.9 was measured. Specifically, a sample was excessively added to a second dissolution test solution (pH 6.9) (manufactured by Kanto Chemical Co., Inc.), and the mixture was shaken at 20° C. for 24 hours to produce a saturated solution. After the undissolved sample was removed with a filter, the amount of the compound in the filtrate was determined by HPLC, and the solubility […] was calculated.
# [3] = Measurement of moisture absorption (automatic gas and vapor adsorption analyzer); details: BELSORP Aqua3 automatic gas and vapor adsorption analyzer
# Method: Regarding the crystals B and C, the moisture absorption was measured by using an automatic gas and vapor adsorption analyzer (BELSORP Aqua3 manufactured by MicrotracBEL Corp.)
time until completely deliquesced [1] [h],solubility at pH 6.9 [2] [μg/ml],moisture absorption (at maximum) [3] [%],Structure (SMILES)
≤ 24,,,Cc1cc(=O)n(-c2ccc(C[C@H](N)C(=O)OCC(C)C)cn2)c(=O)n1C [compound 16-HCl]
,150,≤ 1.35,"Cc1cc(=O)n(-c2ccc(C[C@H](NC(=O)c3cc(F)c(NS(=O)(=O)c4ccc(NC(=O)C(C)(C)C)cc4)cc3F)C(=O)OCC(C)C)cn2)c(=O)n1C [crystal B, isobutyl(S)-2-(2,5-difluoro-4-((4-pivalamidophenyl)sulfonamido)benzamide)-3-(6-(3,4-dimethyl-2,6-dioxo-3,6-dihydropyrimidin-1(2H)-yl)pyridin-3-yl)propanoate]"
,25.0,≤ 0.24,"Cc1cc(=O)n(-c2ccc(C[C@H](NC(=O)c3cc(F)c(NS(=O)(=O)c4ccc(NC(=O)C(C)(C)C)cc4)cc3F)C(=O)OCC(C)C)cn2)c(=O)n1C [crystal C, isobutyl(S)-2-(2,5-difluoro-4-((4-pivalamidophenyl)sulfonamido)benzamide)-3-(6-(3,4-dimethyl-2,6-dioxo-3,6-dihydropyrimidin-1(2H)-yl)pyridin-3-yl)propanoate]"
